Here are results for one substance from patent US6620792B1, “Pharmaceutical compositions containing monosialoganglioside GM1 or derivative thereof suitable for the treatment of parkinson's disease” (Fidia S.p.A., priority 1992, dated 2003).

The subject of assay [1] is MPTP-treated cynomolgus monkeys. The assay can be described thus: motor behaviour rating of MPTP-treated cynomolgus monkeys. The format is in vivo. The following applies: GM1 15 mg/kg/day i.m.; p<0.05 vs saline solution. Here is the method:
In vivo experiments with GM1 were carried out on 15 (male or female) squirrel monkeys and 4 cynomolgus monkeys.
The monkeys were administered MPTP saline solution after being anaesthesized i.m. with ketamine HCl 5 mg/kg, as follows:
0.35 mg/kg/dose, i.v. (cynomolgus monkeys)
MPTP was administered every third day until complete manifestation of parkinsonian motor symptomatology was obtained, i.e. akinesia, lack of responsiveness to stimulation, inability to climb, to feed autonomously, and to groom. Thirty points min. (as will be defined in the explanation of FIG. 1) had to be obtained during the 48-60 hours following the last MPTP administration; then animals in pairs were subdivided at random into two treatment groups, i.e. treatment with GM1 or with saline solution. […]
In particular, the following functions were recorded: overall activity, ability to climb, locomotion/gait, upper and lower limb movements, detailed motor ability, bradykinesia/akinesia, dyskinesia/dystonia, carriage, tremor, balance, grooming ability, sudden immobility during movements, and ability to feed. […]
FIGS. 1 and 2 are now being considered in detail. […] Columns represent the average points (±S.D.); normal point is 0, MPTP points are the points recorded after the last MPTP injection but prior to the administration of associated GM1-saline solution. […]

For assay [2], the system named is MPTP-treated squirrel monkeys. The assay can be described thus: food grasping test in MPTP-treated squirrel monkeys. The assay is classed as in vivo. The following applies: GM1 30 mg/kg/day i.m., investigation end. As for the experimental part: Tests on squirrel monkeys, which concerned simple motor functions (e.g. capability of grasping food placed in deep containers), were intended to determine the response time and evaluate limb functional use. In particular, monkeys were trained to grasp raisins from a Plexiglas platform accommodating 9.5 mm dia. wells. The time taken to start grasping and the number of raisins grasped in a 6-minute time limit were recorded. All the aforesaid tests were carried out before the first meal of the day.
Normal monkeys started response on sighting the food container.
Normal squirrel monkeys succeeded in grasping 100% food. Soon after MPTP administration, all monkeys were endangered and grasped approx. 15% food. Within the third week of treatment, the monkeys treated with GM1—compared with those treated with saline solution—grasped a higher amount of food. At the investigation end, the former grasped 100% food whereas the latter grasped only 25% food (*p<0.05).

Assay [3] deals with MPTP-treated cynomolgus monkeys. The assay can be described thus: post-mortem striatal dopamine and metabolite levels by HPLC, cynomolgus monkeys. The format is in vivo. The conditions noted are these: MPTP/GM1, average (S.D.). Here is the method: Post-mortem neurochemical examinations of striatal tissue were carried out for the determination of dopamine (DA) and relevant metabolites, e.g. homovanillic acid (HVA), and […] (DOPAC). DA and relevant metabolites striatal levels were quantified by electrochemical […] high pressure liquid chromatography (HPLC) (Schneider J. S., Brain Res., 24, 534, 1990).

Assay [4] has as its system cerebellar granule cells. The assay can be described thus: TOPA neurotoxicity in cerebellar granule cell cultures, MTT assay. The format is cell-based. The conditions noted are these: for Neuronal survival (%): control = 100%. Here is the method: Granular cell cultures were obtained from 8-day rat cerebella and cultured (3×10^6 cells) on plates coated with poly-L-lysine substrate according to Skaper et al. (Skaper S. D. et al.: “Culture and use of primary and clonal neural cells”, Methods in Neurosciences, Ed. by P. M. Conn, Vol. 2, pp. 17-33, Academic Press, Orlando, 1990).
Twenty-four hours later, cytosine arabinoside (10 μM) was added to inhibit non-neuronal proliferation. Cerebellar granule cells were used 10-12 days later without changing the medium.
Cells were incubated with TOPA either for 40 minutes (100 μM acute exposure) or for 24 h (10 μM prolonged exposure).
Treatment with GM1, AGF2, AGF4 (100 μM) and LIGA 20 (1-30 μm) was carried out as follows:
2-hour pretreatment before acute incubation with TOPA;
cotreatment only with LIGA 20 before acute incubation with TOPA;
pretreatment with/without cotreatment before (100 μM for 2 h) and/or during (100 μM for 24 h) prolonged incubation with TOPA. TOPA cytotoxicity was determined by evaluating cellular survival, and more precisely:
MTT colorimetric assay of cerebellar neurons, as described by Mosmann (Mosmann T.: “Rapid colorimetric assay for cellular growth and survival: application to proliferation and cytotoxicity assays”, J. Immunol. Meth., 65, 55-63, 1983).
Cytotoxicity is expressed as per cent cellular survival.
The results of the two tests (in triplicate) were analysed statistically according to Duncan's test. A brief description of same is reported below:
In FIG. 3 the dose-dependent protective effect of LIGA20 against TOPA-induced death of cultured cerebellar granule cells is represented. Cells were exposed concurrently to 100 μM TOPA and 1-30 μM LIGA20 or 200 μM GM1 in Locke's solution for 45 minutes (24° C.), washed and returned to their original medium. Survival was assessed 24 h later by the MTT method. Means±S.E.M. (n=9, 3 experiments). TOPA ( ), LIGA 20 ( ), GM1 ( ).
In vitro granule cells at the 11th day were incubated as indicated above. In the 40-minute exposure to TOPA, GM1 (100 μM) was used in 2-h pretreatment only. In the […] exposure to TOPA, GM1 (100 μM) was used either in 2-h pretreatment only or in 2-h pretreatment and in cotreatment with TOPA. The values are expressed with reference to the corresponding control cultures (=100%) and are an average (±S.D.) of two determinations, each being carried out in triplicate.
For orientation: Tetrazolium assays rely on reduction of a dye to a coloured formazan, in cell work by metabolically active cells.

Marks after values point to notes of the source that are not given here.

As for monosialoganglioside [GM1], the “motor behaviour at the investigation end” value in assay [1] is recorded as “almost normal behaviour”. Besides, the “response start time in food grasping test” value in assay [2] (p<0.002 vs saline solution) is recorded as “started response almost immediately”. In addition, the “food per cent amount grasped during the test” value in assay [2] (saline solution 25%, normal 100%) is given as 100%. Also, the DA striatal level is on record as 4.4(0.6)* ng/mg protein in assay [3] (Dorsolateral caudatum), 3.7(0.9) ng/mg protein in assay [3] (Dorsolateral putamen), 12.9(2.8)* ng/mg protein in assay [3] (Ventromedial caudatum) and 11.2(4.1)* ng/mg protein in assay [3] (Ventromedial putamen). For the same substance, the DOPAC striatal level in assay [3] (Dorsolateral caudatum) was 2.7(0.3)* ng/mg protein; in assay [3] (Dorsolateral putamen) it was 2.1(0.8)* ng/mg protein; in assay [3] (Ventromedial caudatum) it was 6.6(0.7)* ng/mg protein; in assay [3] (Ventromedial putamen), 7.1(3.2)* ng/mg protein. The HVA striatal level in assay [3] (Dorsolateral caudatum) is on record as 55.9(12.0)* ng/mg protein; in assay [3] (Dorsolateral putamen), 51.9(9.4)* ng/mg protein; in assay [3] (Ventromedial caudatum), 60.9(6.9)* ng/mg protein; in assay [3] (Ventromedial putamen) it was 100.3(11.9)* ng/mg protein. Besides, the “Neuronal survival (%)” value in assay [4] (GM1 100 μM 2-h pretreatment and cotreatment, TOPA 10 μM 24-h exposure) is 75.4 ± 5.5 (b) %; in assay [4] (GM1 100 μM 2-h pretreatment only, TOPA 10 μM 24-h exposure) it was 57.0 ± 6.5 (a) %; in assay [4] (GM1 100 μM 2-h pretreatment only, then TOPA 100 μM 40-minute exposure), 72.4 ± 5.8 (a) %. Moreover, the “protection against the acute toxicity of TOPA in cotreatment” value in assay [4] (GM1 up to 200 μM, cotreatment with 100 μM TOPA for 45 minutes (FIG. 3)) is “not active”.
